In article PMC8355692, “Antimelanoma activities of chimeric thiazole–androstenone derivatives” (Royal Society Open Science, 2021):

Columns and labels:
Assay type in all cases: cell-based
SK-MEL-28 cell line = test: Annexin V flow cytometry apoptosis assay
Experimental: After determining the selective toxicity of potent molecules, we determined their mode of action against the melanoma cell line. Apoptosis or programmed cell death is a physiological process to remove unwanted or damaged mammalian cells. We detected apoptosis mode of cell death by our potent compounds using flow cytometry-based Annexin V assay. Compound 3 caused 23% apoptosis at 6 µM and 54% apoptosis at 12 µM (figure 3). 3-Fluorophenyl derivative (5) was a very potent apoptosis-inducing agent that caused 100% cell death at 12 µM concentration. Dacarbazine, the positive control, caused 22% apoptotic cell death at 200 µM concentration.
Figure 3. Apoptosis measurements using Annexin V flow cytometry assay of compounds 3 and 5 against SK-MEL-28 cell line at 6 and 12 µM concentrations. DMSO and dacarbazine (Daca) are negative and positive controls, respectively. Mean ± s.e.m., n = 3 per group.

heme oxygenase-1 (HO1) = test: HO1 immunocytochemistry combined with TUNEL (oxidative injury); conditions: melanoma cells, 24 h; for HO1 staining in TUNEL-positive cells (oxidative injury): 5 or 10 µM; for HO1 mean intensity (oxidative injury): 10 µM
From the text: (§1) The elevation was dose-dependent.
(§2) Figure 4. […] (c) Representative images. […] Mean ± s.e.m., n = 4 per group.
(§3) Figure 5. […] (a) Representative images of TUNEL colocalized or not colocalized with each of the three protein markers used in this study. […] Mean ± s.e.m., n = 4 per group.
(§4) Thus, to determine the mechanism of action of our compounds on melanoma cells in vitro, we applied the fluorescent TUNEL assay combined with quantitative ICC for three markers: HO1 for oxidative cell injury, CAD for caspase-mediated apoptosis and EndoG for caspase-independent apoptosis. […] However, none of the compounds or dacarbazine induced apoptotic endonucleases. This is not surprising because apoptotic endonucleases are commonly present in the cell in sufficient amounts to be able to destroy DNA upon cell death without induction (which most likely would not be possible in a dead cell).

HFF-1 cell line = test: Toxicity for normal human foreskin fibroblast cell line; conditions: normal human foreskin fibroblast HFF-1; for IC50: read-out: IC50 against HFF1 cell line
From the text: To assess the potential use of lead compounds as anti-melanoma agents, we tested their toxicity for the normal human foreskin fibroblast (HFF-1) cell line taking into consideration that MM is usually surrounded by the cells of this kind. The effects of some of the potent compounds on this cell line were very encouraging (table 4).

endonuclease G (EndoG) = test: EndoG immunocytochemistry combined with TUNEL (caspase-independent apoptosis); conditions: melanoma cells, 5 or 10 µM, 24 h
From the text: as §1, §2, §3, §4

LOX IMVI = test: NCI DTP 60 cell line five-concentration test, melanoma panel; conditions: for LC50 (50% lethal concentration) / GI50: Homo sapiens; for LC50 (50% lethal concentration): LOX IMVI, read-out: LC50 (50% lethal concentration); for GI50 / TGI (total growth inhibition): LOX IMVI melanoma cell line
Experimental: (§5) In our effort to develop new methodologies to synthesize bioactive compounds [11–14], we have synthesized a number of thiazole and thiazolo-androstenone derivatives. We submitted 50 of the synthesized thiazole–androstenone derivatives to the National Cancer Institute (NCI) Development Therapeutics Program (DTP) to test against 60 cancer cell lines (https://dtp.cancer.gov/). These compounds were tested for cytotoxicity at a single dose of 10 µM. […] Eight of these chimeric compounds (figure 2) were selected for further testing at five different concentrations to determine 50% growth inhibition (GI50), total growth inhibition (TGI) and 50% lethal concentration (LC50) values. […] Overall, amino-thiazole derivatives (table 1, 1–7) were more toxic to melanoma cell lines than phenyl thiazole derivatives (8). Fluoro and oxy (hydroxy and methoxy) derivatives were the potent growth inhibitors of the tested cancer cell lines. LOX IMVI cell line was the most susceptible among all the melanoma cell lines used against the tested compounds (table 1). […] Phenyl ethyl derivative (1) inhibited the growth of all the cell lines except SK-MEL-2. […] 2,4-Dimethyl substituted derivative (7) is a potent growth inhibitor of all the tested cell lines of the melanoma panel.

MALME-3M = test: as above; conditions: for CC50 / GI50: Homo sapiens; for CC50: Malme-3M, read-out: LC50 (50% lethal concentration); for GI50 / TGI (total growth inhibition): MALME-3M melanoma cell line
Experimental: as §5

UACC-257 = test: as above; conditions: for CC50 / GI50: Homo sapiens; for CC50: UACC-257, read-out: LC50 (50% lethal concentration); for GI50 / TGI (total growth inhibition): UACC-257 melanoma cell line
Experimental: as §5

MDA-MB-435 = test: as above; conditions: for CC50 / GI50: Homo sapiens; for CC50: MDA-MB-435, read-out: LC50 (50% lethal concentration); for GI50 / TGI (total growth inhibition): MDA-MB-435 melanoma cell line
Experimental: as §5

UACC-62 = test: as above; conditions: for GI50 / LC50 (50% lethal concentration): Homo sapiens; for GI50: UACC-62, UACC-62 melanoma cell line; for LC50 (50% lethal concentration): UACC-62, read-out: LC50 (50% lethal concentration); for TGI (total growth inhibition): UACC-62 melanoma cell line
Experimental: as §5

SK-MEL-28 = test: as above; conditions: for CC50: SK-MEL-28, read-out: LC50 (50% lethal concentration)
Experimental: as §5

SK-MEL-5 = test: as above; conditions: for CC50 / GI50: Homo sapiens; for CC50: SK-MEL-5, read-out: LC50 (50% lethal concentration); for GI50 / TGI (total growth inhibition): SK-MEL-5 melanoma cell line
Experimental: as §5

M14 = test: as above; conditions: for GI50 / CC50: Homo sapiens; for GI50: M14, M14 melanoma cell line; for CC50: M14, read-out: LC50 (50% lethal concentration); for TGI (total growth inhibition): M14 melanoma cell line
Experimental: as §5

SK-MEL-2 = test: as above; conditions: for LC50 (50% lethal concentration) / GI50: Homo sapiens; for LC50 (50% lethal concentration): SK-MEL-2, read-out: LC50 (50% lethal concentration); for GI50 / TGI (total growth inhibition): SK-MEL-2 melanoma cell line
Experimental: as §5

[1] = tested on: caspase-activated DNase (CAD); test: CAD immunocytochemistry combined with TUNEL (caspase-mediated apoptosis); conditions: melanoma cells, 5 or 10 µM, 24 h
From the text: as §1, §2, §3, §4

[2] = Homo sapiens, SK-MEL-28, SK-MEL-28 melanoma cell line

SMILES | IC50 (HFF-1 cell line) | EndoG mean intensity (endonuclease G (EndoG)) | LC50 (50% lethal concentration) (LOX IMVI) | GI50 (LOX IMVI) | TGI (total growth inhibition) (LOX IMVI) | CC50 (MALME-3M) | GI50 (MALME-3M) | TGI (total growth inhibition) (MALME-3M) | CC50 (UACC-257) | GI50 (UACC-257) | TGI (total growth inhibition) (UACC-257) | CC50 (MDA-MB-435) | GI50 (MDA-MB-435) | TGI (total growth inhibition) (MDA-MB-435) | GI50 (UACC-62) | LC50 (50% lethal concentration) (UACC-62) | TGI (total growth inhibition) (UACC-62) | GI50 (SK-MEL-28; [2]) | CC50 (SK-MEL-28; Homo sapiens) | GI50 (SK-MEL-28; SK-MEL-28 melanoma cell line) | further results
C[C@]12CCc3nc(Nc4ccc(OC(F)(F)F)cc4)sc3C1=CC[C@@H]1[C@@H]2CC[C@]2(C)C(=O)CC[C@@H]12 [Compound 3] | > 100 µM | No significant induction | 5.82 µM | 1.74 µM | 3.18 µM | 84.5 µM | 3.45 µM | 16.8 µM | > 100 µM | 4.89 µM | 28.8 µM | 44.2 µM | 2.72 µM | 10.1 µM | 3.03 µM | > 100 µM | 10.3 µM | ≥ 1.32 µM | 49.2 µM | 1.88 µM | apoptosis (SK-MEL-28 cell line; SK-MEL-28, 6 µM): 23%; apoptosis (SK-MEL-28 cell line; SK-MEL-28, 12 µM): 54%; HO1 staining in TUNEL-positive cells (oxidative injury) (heme oxygenase-1 (HO1)): strongly induced oxidative injury; toxicity against HFF1 cells (in words) (HFF-1 cell line): did not show any notable toxicity; TGI (total growth inhibition) (SK-MEL-28; SK-MEL-28 melanoma cell line): 7.98 µM; CC50 (SK-MEL-5): 41.4 µM; GI50 (SK-MEL-5): 2.62 µM; TGI (total growth inhibition) (SK-MEL-5): 7.41 µM; GI50 (M14): 3.29 µM; CC50 (M14): 46.6 µM; TGI (total growth inhibition) (M14): 8.72 µM; LC50 (50% lethal concentration) (SK-MEL-2): 55.6 µM; GI50 (SK-MEL-2): 3 µM; TGI (total growth inhibition) (SK-MEL-2): 11.6 µM; CAD mean intensity [1]: No significant induction; colocalization of CAD with TUNEL (caspase-mediated apoptosis) [1]: induced the colocalization of CAD with TUNEL
C[C@]12CCc3nc(Nc4cccc(F)c4)sc3C1=CC[C@@H]1[C@@H]2CC[C@]2(C)C(=O)CC[C@@H]12 [Compound 5] | 5.9 µM | No significant induction | 6.16 µM | 1.67 µM | 3.21 µM | 26.7 µM | 1.94 µM | 5.04 µM | > 100 µM | 5.47 µM | 64 µM | > 100 µM | 2.74 µM | 13.1 µM | 1.54 µM | 6.31 µM | 3.12 µM | ≥ 1.32 µM | 19.9 µM | 1.52 µM | apoptosis (SK-MEL-28 cell line; SK-MEL-28, 12 µM): 100%; HO1 mean intensity (oxidative injury) (heme oxygenase-1 (HO1)): induced oxidative injury; HO1 staining in TUNEL-positive cells (oxidative injury) (heme oxygenase-1 (HO1)): strongly induced oxidative injury; toxicity against HFF1 cells (in words) (HFF-1 cell line): somewhat toxic; TGI (total growth inhibition) (SK-MEL-28; SK-MEL-28 melanoma cell line): 4.27 µM; CC50 (SK-MEL-5): 9.24 µM; GI50 (SK-MEL-5): 2.02 µM; TGI (total growth inhibition) (SK-MEL-5): 4.32 µM; GI50 (M14): 2.36 µM; CC50 (M14): 81.4 µM; TGI (total growth inhibition) (M14): 7.23 µM; LC50 (50% lethal concentration) (SK-MEL-2): 26.7 µM; GI50 (SK-MEL-2): 1.86 µM; TGI (total growth inhibition) (SK-MEL-2): 5.19 µM; CAD mean intensity [1]: No significant induction; colocalization of CAD with TUNEL (caspase-mediated apoptosis) [1]: induced the colocalization of CAD with TUNEL
C[C@]12CCc3nc(Nc4cccc(O)c4)sc3C1=CC[C@@H]1[C@@H]2CC[C@]2(C)C(=O)CC[C@@H]12 [Compound 4] | 8.6 µM | No significant induction | 5.94 µM | 1.67 µM | 3.15 µM | > 100 µM | 1.49 µM | 3.01 µM | > 100 µM | 3.69 µM | >100 µM | > 100 µM | 2.53 µM | >100 µM | 2.08 µM | > 100 µM | 5.25 µM | ≥ 1.32 µM | > 100 µM | 1.32 µM | HO1 mean intensity (oxidative injury) (heme oxygenase-1 (HO1)): induced oxidative injury; TGI (total growth inhibition) (SK-MEL-28; SK-MEL-28 melanoma cell line): 3.31 µM; CC50 (SK-MEL-5): > 100 µM; GI50 (SK-MEL-5): 5.7 µM; TGI (total growth inhibition) (SK-MEL-5): >100 µM; GI50 (M14): 2.97 µM; CC50 (M14): > 100 µM; TGI (total growth inhibition) (M14): >100 µM; LC50 (50% lethal concentration) (SK-MEL-2): 91.4 µM; GI50 (SK-MEL-2): 2.86 µM; TGI (total growth inhibition) (SK-MEL-2): 9.99 µM; CAD mean intensity [1]: No significant induction; colocalization of CAD with TUNEL (caspase-mediated apoptosis) [1]: induced the colocalization of CAD with TUNEL
